Experimental data taken from patent US6432426B1, “Non-staining topical iodine composition and method” (Symbollon Corporation, priority 1998, dated 2002).
“And” between values parts separate entries of the source, which are not always exact repeats. Identical values can stand only once.

How the values were obtained:
Human Skin = assay: Diffusion of iodine from skin post application (DPD absorbance at 553 nm); format: in vivo; details: average of three subjects
Protocol: 2. Three samples from Example 1 were used to confirm that molecular iodine will penetrate into skin and remain in the skin for a prolonged time period.
Application of the iodine solution onto skin was performed as described in Example 1 above with the exception that the contacted area was flushed with water for 15 seconds immediately after following contact between the iodine solution and skin. The method of Goftardi (J. Hosp. Infect., 1995, Vol 29, pages 9-18) were used to measure the amount of molecular iodine coming out of the skin. Briefly, 1 mL of a diethyl-p-phenylenediamine (DPD) solution was placed concentrically onto the exposed area of skin and left there for 30 seconds. This solution was then transferred to a 1 cm cuvette and the absorbance was read at 553 nm. Control values were obtained by contacting the DPD solution to an unexposed area on the forearm of each subject. Control values were subtracted from the experimental measurements. Iodine solutions containing 50 ppm, 150 ppm and 300 ppm of molecular iodine were used for this example. Two measurements were made (one measurement of each forearm) at each iodine concentration on all three subjects.

Staphylococcus aureus = assay: Residual biocidal effect of skin associated iodine, colony counts from inoculated treated skin; format: in vivo; details: 320 ppm saturated molecular iodine solution, 30 second contact; inoculated two hours after contact, sampled ninety minutes after inoculation
Protocol: 5. […] […] […] […] The samples were contacted with the arm for 30 seconds. After contact the treated arm was flushed with water for 15 seconds and dried.
[…] Two hours after contact each area was inoculated with […] of a 1:100 dilution of a 48 hour soy-trypticase culture of Staphylococcus aureus. Ninety minutes after inoculation the mouths of sterile 25 mL flasks filled with 2 mL of soy-trypticase with 2% Tween 80 were placed over the marked skin areas. The flasks were gently shaken for 1 minute and a colony count was performed on blood agar plates after incubation at 37° C. for 48 hours. The residual biocidal effect from skin associated molecular iodine was determined by subtracting the log of the colony counts from the areas of skin that were contacted with iodine from the controls (log colony count from untreated skin). The average difference in colony counts between treated and untreated skin was 2.4 logs.

[1] = test system: Staphylococcus epidermidis; assay: Residual biocidal effect of skin associated iodine, repeated experiment; format: in vivo; details: saturated molecular iodine solution (320 ppm)
Streptococcus agalactica = assay: as above; format: in vivo; details: saturated molecular iodine solution (320 ppm)
Candida albicans = assay: as above; format: in vivo; details: saturated molecular iodine solution (320 ppm)
Salmonella typhimurium = assay: as above; format: in vivo; details: saturated molecular iodine solution (320 ppm)
Pseudomonas aeruginosa = assay: as above; format: in vivo; details: saturated molecular iodine solution (320 ppm)
[2] = Sub dermal penetration of iodine measured by iodine analysis of 24 hour urine; format: in vivo, human; details: 300 ppm molecular iodine applied to skin 4 times over six hours; lines = Subjects 1-3 (prior: 95, 114, 106); listed as I2
Protocol: 11. The 300 ppm samples of molecular iodine described in Example 1 was used to confirm that molecular iodine will penetrate into skin and permeate into the skin to provide sub dermal tissue penetration.
Application of the iodine solution onto skin was performed as described in Example 1 above with two exceptions: (1) the contacted area was flushed with water for 15 seconds immediately after following contact between the iodine solution and skin and (2) the sample was applied to the skin once every 2 hours over a six hour time period (4 applications).
Twenty-four hour urine samples were collected on three subjects for the day immediately prior to the experiment. […] The urine samples were analyzed to determine their total iodine content. Urinary concentrations of total iodide were measured by utilizing the reduction-oxidation reaction between ceric ioni and arsenite ion catalyzed by iodide. […] Arsenious acid was added, the samples were transferred to an autoanalyzer, ceric ammonium sulfate was added “on line” and the optical transmission was measured spectrophometrically at 420 nm. […] If the yellow color fades to colorless (clear) within 1.5 minutes, the iodine content is too high to be measured. […] The % transmission was recorded and the concentration of iodine in each sample was determined by comparison to the standards.

Compound: II [Molecular Iodine, molecular iodine]
- Mean absorbance (DPD, 553 nm), iodine diffusing from skin (Human Skin; 50 ppm I2, 3 minutes after application): 0.06
- Mean absorbance (DPD, 553 nm), iodine diffusing from skin (Human Skin; 50 ppm I2, 6 minutes after application): 0.17
- Mean absorbance (DPD, 553 nm), iodine diffusing from skin (Human Skin; 50 ppm I2, 20 minutes after application): 0.19
- Mean absorbance (DPD, 553 nm), iodine diffusing from skin (Human Skin; 50 ppm I2, 60 minutes after application): 0.18
- Mean absorbance (DPD, 553 nm), iodine diffusing from skin (Human Skin; 50 ppm I2, 90 minutes after application): 0.13
- Mean absorbance (DPD, 553 nm), iodine diffusing from skin (Human Skin; 50 ppm I2, 120 minutes after application): 0.08
- Mean absorbance (DPD, 553 nm), iodine diffusing from skin (Human Skin; 50 ppm I2, 240 minutes after application): 0.06
- Mean absorbance (DPD, 553 nm), iodine diffusing from skin (Human Skin; 50 ppm I2, 660 minutes after application): 0.02
- Mean absorbance (DPD, 553 nm), iodine diffusing from skin (Human Skin; 150 ppm I2, 3 minutes after application): 0.32
- Mean absorbance (DPD, 553 nm), iodine diffusing from skin (Human Skin; 150 ppm I2, 6 minutes after application): 0.31
- Mean absorbance (DPD, 553 nm), iodine diffusing from skin (Human Skin; 150 ppm I2, 20 minutes after application): 0.48
- Mean absorbance (DPD, 553 nm), iodine diffusing from skin (Human Skin; 150 ppm I2, 60 minutes after application): 0.53
- Mean absorbance (DPD, 553 nm), iodine diffusing from skin (Human Skin; 150 ppm I2, 90 minutes after application): 0.50
- Mean absorbance (DPD, 553 nm), iodine diffusing from skin (Human Skin; 150 ppm I2, 120 minutes after application): 0.46
- Mean absorbance (DPD, 553 nm), iodine diffusing from skin (Human Skin; 150 ppm I2, 240 minutes after application): 0.36
- Mean absorbance (DPD, 553 nm), iodine diffusing from skin (Human Skin; 150 ppm I2, 660 minutes after application): 0.20
- Mean absorbance (DPD, 553 nm), iodine diffusing from skin (Human Skin; 300 ppm I2, 3 minutes after application): 0.78
- Mean absorbance (DPD, 553 nm), iodine diffusing from skin (Human Skin; 300 ppm I2, 6 minutes after application): 0.65
- Mean absorbance (DPD, 553 nm), iodine diffusing from skin (Human Skin; 300 ppm I2, 20 minutes after application): 1.11
- Mean absorbance (DPD, 553 nm), iodine diffusing from skin (Human Skin; 300 ppm I2, 60 minutes after application): 0.93
- Mean absorbance (DPD, 553 nm), iodine diffusing from skin (Human Skin; 300 ppm I2, 90 minutes after application): 0.77
- Mean absorbance (DPD, 553 nm), iodine diffusing from skin (Human Skin; 300 ppm I2, 120 minutes after application): 0.64
- Mean absorbance (DPD, 553 nm), iodine diffusing from skin (Human Skin; 300 ppm I2, 240 minutes after application): 0.57
- Mean absorbance (DPD, 553 nm), iodine diffusing from skin (Human Skin; 300 ppm I2, 660 minutes after application): 0.40
- Average difference in colony counts between treated and untreated skin (Staphylococcus aureus): 2.4 logs
- Residual biocidal efficacy on skin [1]: Efficacy was also demonstrated
- Residual biocidal efficacy on skin (Streptococcus agalactica): Efficacy was also demonstrated
- Residual biocidal efficacy on skin (Candida albicans): Efficacy was also demonstrated
- Residual biocidal efficacy on skin (Salmonella typhimurium): Efficacy was also demonstrated
- Log reduction (smallest observed) (Pseudomonas aeruginosa): 0.5 logs
- 24 Hour Urine iodine, Post I2 Application [2]: 647 ug iodine and 846 ug iodine and 741 ug iodine
